Measured values reported in US8067611B2, “Substituted 1-(thiazolyl)-and 1-(isothiazolyl)pyrazol-4-ylacetic acids, processes for their preparation and their use as herbicides and plant growth regulators” (Bayer CropScience AG, priority 2008, dated 2011).

Experiments:
[1] = tested on: weed-grasses and broad-leaved weeds; experiment: Post-emergence herbicidal effect, greenhouse pot test; type: in vivo; conditions: application rate of 1 kg and less of active substance per hectare, scored after 3 weeks
Procedure: Seeds of monocotyledonous or dicotyledonous weed plants or crop plants are planted in wood-fiber pots in sandy loam, covered with soil and grown in a greenhouse under good growth conditions. 2 to 3 weeks after sowing, the test plants are treated in the one-leaf stage. The compounds according to the invention, formulated in the form of wettable powders (WP), are then sprayed onto the green plant parts as aqueous suspension or emulsion at a water application rate of 600 I/ha (converted) with the addition of 0.2% of wetting agent. After 3 weeks' standing time of the test plants in the greenhouse under optimum growth conditions, the effect of the preparations is scored visually in comparison with untreated controls (herbicidal effect in percent (%): 100% effect=plants have died, 0% effect=as control plants).

harmful plants = experiment: Pre-emergence herbicidal effect, greenhouse pot test; type: in vivo; conditions: application rate of 1 kg or less of active substance per hectare, scored after about 3 weeks
Text: Seeds of monocotyledonous or dicotyledonous weed plants or crop plants are planted in wood-fiber pots in sandy loam and covered with soil. The compounds (I) according to the invention, formulated in the form of wettable powders (WP), are then applied as aqueous suspension or emulsion at a water application rate of 600 I/ha (converted) with the addition of 0.2% of wetting agent to the surface of the covering soil.
Following the treatment, the pots are placed in a greenhouse and kept under good growth conditions for the test plants. After about 3 weeks, the effect of the preparations is scored visually in comparison with untreated controls (herbicidal effect in percent (%): 100% effect=plants have died, 0% effect=as control plants).

SMILES	post-emergence activity against a broad spectrum of weed-grasses and broad-leaved weeds [1]	herbicidal pre-emergence activity against a number of harmful plants (harmful plants)
Cc1nn(-c2ccns2)c(-c2ccc(Br)s2)c1CC(=O)O [Compound 1-67]	good post-emergence activity	good herbicidal pre-emergence activity
Cc1nn(-c2ccns2)c(-c2ccc(Br)cn2)c1CC(=O)O [Compound 1-119]	good post-emergence activity	good herbicidal pre-emergence activity
COC(=O)Cc1c(C)nn(-c2ccns2)c1-c1ccccc1 [Compound 2-2]	good post-emergence activity	good herbicidal pre-emergence activity
COC(=O)Cc1c(C)nn(-c2ccns2)c1-c1ccc(Cl)cc1 [Compound 2-28]	good post-emergence activity	good herbicidal pre-emergence activity
COC(=O)Cc1c(C)nn(-c2ccns2)c1-c1ccc(Br)s1 [Compound 2-68]	good post-emergence activity	good herbicidal pre-emergence activity
COC(=O)Cc1c(C)nn(-c2ccns2)c1-c1ccccn1 [Compound 2-116]	good post-emergence activity	good herbicidal pre-emergence activity
COC(=O)Cc1c(C)nn(-c2ccns2)c1-c1ccc(Br)cn1 [Compound 2-120]	good post-emergence activity	good herbicidal pre-emergence activity
COC(=O)Cc1c(C)nn(-c2cc(C)ns2)c1-c1ccc(Cl)cc1 [Compound 2-147, Methyl[5-(4-chlorophenyl)-3-methyl-1-(3-methylisothiazol-5-yl)-1H-pyrazol-4-yl]acetate]	good post-emergence activity	good herbicidal pre-emergence activity
COC(=O)Cc1c(C)nn(-c2cnsc2)c1-c1ccccc1 [Compound 5-2]	good post-emergence activity	good herbicidal pre-emergence activity
COC(=O)Cc1c(C)nn(-c2cnsc2)c1-c1ccc(Cl)cc1 [Compound 5-28]	good post-emergence activity	good herbicidal pre-emergence activity
COC(=O)Cc1c(C)nn(-c2cnsc2)c1-c1ccccn1 [Compound 5-115]	good post-emergence activity	good herbicidal pre-emergence activity
COC(=O)Cc1c(C)nn(-c2cnsc2)c1-c1ccc(Cl)cn1 [Compound 5-116]	good post-emergence activity	good herbicidal pre-emergence activity
COC(=O)Cc1c(C)nn(-c2cnsc2)c1-c1ccc(Br)cn1 [Compound 5-119]	good post-emergence activity	good herbicidal pre-emergence activity
COC(=O)Cc1c(C)nn(-c2cnsc2)c1-c1ccc(F)cc1 [Compound 5-131]	good post-emergence activity	good herbicidal pre-emergence activity
COC(=O)Cc1c(C)nn(-c2cnsc2)c1-c1nc2ccccc2s1 [Compound 5-216]	good post-emergence activity	good herbicidal pre-emergence activity
COC(=O)Cc1c(C)nn(-c2cnsc2)c1-c1ncc(Br)cn1 [Compound 5-227]	good post-emergence activity	good herbicidal pre-emergence activity
COC(=O)Cc1c(C)nn(-c2cnsc2)c1-c1ccc2ccccc2n1 [Compound 5-239]	good post-emergence activity	good herbicidal pre-emergence activity
COC(=O)Cc1c(C)nn(-c2cnsc2)c1-c1cc2ccccc2cn1 [Compound 5-240]	good post-emergence activity	good herbicidal pre-emergence activity

SMILES	post-emergence activity against a broad spectrum of weed-grasses and broad-leaved weeds [1]	herbicidal pre-emergence activity against a number of harmful plants (harmful plants)
Cc1nn(-c2cncs2)c(-c2ccc(Cl)cc2)c1CC(=O)O [Compound 7-29, [5-(4-Chlorophenyl)-3-methyl-1-(1,3-thiazol-5-yl)-1H-pyrazol-4-yl]acetic acid]	good post-emergence activity	good herbicidal pre-emergence activity
COC(=O)Cc1c(C)nn(-c2cncs2)c1-c1ccccc1 [Compound 8-2]	good post-emergence activity	good herbicidal pre-emergence activity
COC(=O)Cc1c(C)nn(-c2cncs2)c1-c1ccco1 [Compound 8-4]	good post-emergence activity	good herbicidal pre-emergence activity
COC(=O)Cc1c(C)nn(-c2cncs2)c1-c1ccc(C)cc1 [Compound 8-16]	good post-emergence activity	good herbicidal pre-emergence activity
COC(=O)Cc1c(C)nn(-c2cncs2)c1-c1ccc(Cl)cc1 [Compound 8-28, methyl[5-(4-chlorophenyl)-3-methyl-1-(1,3-thiazol-5-yl)-1H-pyrazol-4-yl]acetate]	good post-emergence activity	good herbicidal pre-emergence activity
COC(=O)Cc1c(C)nn(-c2cncs2)c1-c1ccc(C(F)(F)F)cc1 [Compound 8-32]	good post-emergence activity	good herbicidal pre-emergence activity
COC(=O)Cc1c(C)nn(-c2cncs2)c1-c1sccc1C [Compound 8-64]	good post-emergence activity	good herbicidal pre-emergence activity
COC(=O)Cc1c(C)nn(-c2cncs2)c1-c1ccc(Br)s1 [Compound 8-69]	good post-emergence activity	good herbicidal pre-emergence activity
COC(=O)Cc1c(C)nn(-c2cncs2)c1-c1ccccn1 [Compound 8-117]	good post-emergence activity	good herbicidal pre-emergence activity
COC(=O)Cc1c(C)nn(-c2cncs2)c1-c1ccc(Cl)cn1 [Compound 8-118]	good post-emergence activity	good herbicidal pre-emergence activity
COC(=O)Cc1c(C)nn(-c2cncs2)c1-c1ccc(Br)cn1 [Compound 8-121]	good post-emergence activity	good herbicidal pre-emergence activity
COC(=O)Cc1c(C)nn(-c2cncs2)c1-c1ccc(F)cc1 [Compound 8-133]	good post-emergence activity	good herbicidal pre-emergence activity
COC(=O)Cc1c(C)nn(-c2cncs2)c1-c1nc2ccccc2s1 [Compound 8-219]	good post-emergence activity	good herbicidal pre-emergence activity
COC(=O)Cc1c(C)nn(-c2cncs2)c1-c1ncc(Cl)cn1 [Compound 8-229]	good post-emergence activity	good herbicidal pre-emergence activity
COC(=O)Cc1c(C)nn(-c2cncs2)c1-c1ncc(Br)cn1 [Compound 8-230]	good post-emergence activity	good herbicidal pre-emergence activity
COC(=O)Cc1c(C)nn(-c2cncs2)c1-c1ccc2ccccc2n1 [Compound 8-239]	good post-emergence activity	good herbicidal pre-emergence activity
COC(=O)Cc1c(C)nn(-c2cncs2)c1-c1cc2ccccc2cn1 [Compound 8-240]	good post-emergence activity	good herbicidal pre-emergence activity
